Results from PMC12774438, “CBL ubiquitin ligase targets translation as a degrader E3” (Chemical Science, 2025).
Where a SMILES comes first, the peptide text is derived from it.

target: T1, His-eIF4E (Homo sapiens, UniProt P06730); experiment: SPR binary binding of peptides to immobilised His-eIF4E; conditions: 25°C, ligand His-eIF4E amine-coupled to CM5 chip, steady-state affinity, analyte 0.005859-0.75 µM, n = 3, mean ± SD
T1 construct: made in house; host or cells: E. coli BL21(DE3) Gold
Experimental: Supplementary Figure 4. Related to Table 2
A. Sensorgrams (left) and binding curves (right) showing a three-fold dilution series […]
over immobilised eIF4E. […]
(1 picture or pasted object on this page, not shown here) […]
Data were analysed by […] affinity analysis using Cytiva Biacore TM Insight Evaluation Software. Sensorgrams for figures were made using GraphPad Prism 9.5.1.
Studying the interactions between eIF4E and eIFTerminator1-4
His-eIF4E protein was immobilised on Cytiva’s sensor chip CM5 using amine-coupling. The chip was docked and primed in running buffer (50 mM HEPES pH 7.5, 100 mM NaCl, 1 mM TCEP, 0.05% Tween20). Cytiva’s amine-coupling kit was used to capture the ligand. Briefly, 0.4 M EDC and 0.1 M NHS from the kit were mixed 50:50 and injected to activate the chip surface for 300 s at 10 μL/min. His-eIF4E was prepared for amine coupling as described previously (15). After achieving a capture level of approximately 120 RU, the remaining binding sites were blocked with ethanolamine hydrochloride-NaOH (pH 8.5) from the kit for 420 s at a flow rate of 10 μL/min. Reference surfaces were prepared in duplicates […]
Multi-cycle experiments were performed to gain steady-state binding affinity of eIFTerminator1-4 to His-eIF4E. At a flow rate of 30 μL/min, 20 startups with a 30 s contact time and a 30 s dissociation time were done prior to sample injection. An 8-point, 1 in 2 dilution series of eIFTerminator1-4 or eIF4G1-D5S peptide was injected (0.005859 – 0.75 μM) with a 100 s contact time and a 250 s dissociation time at a flow rate of 30 μL/min. The peptides were dissolved in running buffer and filtered using Coster Spin-X 0.22 μM centrifuge tube filters as described above. […]

T1 sequence (P06730 whole entry): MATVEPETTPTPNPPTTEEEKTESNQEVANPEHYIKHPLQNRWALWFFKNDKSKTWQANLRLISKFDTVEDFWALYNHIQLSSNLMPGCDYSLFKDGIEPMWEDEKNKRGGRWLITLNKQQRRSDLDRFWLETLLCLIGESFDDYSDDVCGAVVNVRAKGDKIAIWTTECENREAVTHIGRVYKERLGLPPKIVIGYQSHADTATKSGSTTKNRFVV

| Kd [nM] | Molecule |
| --- | --- |
| 38.9 ± 6.5 | CC(C)C[C@H](NC(=O)[C@H](CC(C)C)NC(=O)[C@H](Cc1ccccc1)NC(=O)[C@H](CCC(=O)O)NC(=O)[C@H](CCCNC(=N)N)NC(=O)[C@H](CO)NC(=O)[C@H](Cc1ccc(O)cc1)NC(=O)[C@H](CCCNC(=N)N)NC(=O)[C@H](CCCCN)NC(=O)[C@@H](N)CCCCN)C(=O)NCC(=O)N[C@@H](Cc1ccccc1)C(N)=O [eIF4G1-D5S] (H-KKRYSREFLLGF-NH2) |
| 54 ± 9 | CC[C@H](C)[C@H](NC(=O)[C@H](Cc1c[nH]c2ccccc12)NC(=O)[C@H](CO)NC(=O)[C@H](CC(=O)O)NC(=O)[C@H](CCSC)NC(=O)[C@H](CCC(=O)O)NC(=O)[C@H](CCC(=O)O)NC(=O)[C@@H](NC(=O)[C@@H](NC(=O)[C@H](CCSC)NC(=O)CNC(=O)[C@H](CO)NC(=O)CNC(=O)CNC(=O)[C@H](Cc1ccccc1)NC(=O)CNC(=O)[C@H](CC(C)C)NC(=O)[C@H](CC(C)C)NC(=O)[C@H](Cc1ccccc1)NC(=O)[C@H](CCC(=O)O)NC(=O)[C@H](CCCNC(=N)N)NC(=O)[C@H](CO)NC(=O)[C@H](Cc1ccc(O)cc1)NC(=O)[C@H](CCCNC(=N)N)NC(=O)[C@H](CCCCN)NC(=O)[C@@H](N)CCCCN)[C@@H](C)O)C(C)C)C(=O)N[C@@H](CCCCN)C(=O)N[C@@H](CO)C(=O)N[C@@H](Cc1c[nH]c2ccccc12)C(=O)N[C@@H](CC(=O)O)C(=O)N[C@@H](CCC(N)=O)C(=O)N[C@@H](CCCNC(=N)N)C(N)=O [eIFTerminator1] (H-KKRYSREFLLGFGGSGMTVEEMDSWIKSWDQR-NH2) |
| 67.5 ± 7.4 | CC[C@H](C)[C@H](NC(=O)[C@H](Cc1c[nH]c2ccccc12)NC(=O)[C@H](CO)NC(=O)[C@H](CC(=O)O)NC(=O)[C@H](CCSC)NC(=O)[C@H](CCC(=O)O)NC(=O)[C@H](CCC(=O)O)NC(=O)[C@@H](NC(=O)[C@@H](NC(=O)[C@@H](N)CCSC)[C@@H](C)O)C(C)C)C(=O)N[C@@H](CCCCN)C(=O)N[C@@H](CO)C(=O)N[C@@H](Cc1c[nH]c2ccccc12)C(=O)N[C@@H](CC(=O)O)C(=O)N[C@@H](CCC(N)=O)C(=O)N[C@@H](CCCNC(=N)N)C(=O)NCC(=O)NCC(=O)N[C@@H](CO)C(=O)NCC(=O)N[C@@H](CCCCN)C(=O)N[C@@H](CCCCN)C(=O)N[C@@H](CCCNC(=N)N)C(=O)N[C@@H](Cc1ccc(O)cc1)C(=O)N[C@@H](CO)C(=O)N[C@@H](CCCNC(=N)N)C(=O)N[C@@H](CCC(=O)O)C(=O)N[C@@H](Cc1ccccc1)C(=O)N[C@@H](CC(C)C)C(=O)N[C@@H](CC(C)C)C(=O)NCC(=O)N[C@@H](Cc1ccccc1)C(N)=O [eIFTerminator2] (H-MTVEEMDSWIKSWDQRGGSGKKRYSREFLLGF-NH2) |
| 39.5 ± 3.4 | CC[C@H](C)[C@H](NC(=O)[C@H](Cc1c[nH]c2ccccc12)NC(=O)[C@H](CO)NC(=O)[C@H](CC(=O)O)NC(=O)[C@H](CCSC)NC(=O)[C@H](CCC(=O)O)NC(=O)[C@H](CCC(=O)O)NC(=O)[C@@H](NC(=O)[C@@H](NC(=O)[C@H](CCSC)NC(=O)CNC(=O)[C@H](CO)NC(=O)CNC(=O)CNC(=O)[C@H](CO)NC(=O)CNC(=O)CNC(=O)[C@H](CO)NC(=O)CNC(=O)CNC(=O)[C@H](Cc1ccccc1)NC(=O)CNC(=O)[C@H](CC(C)C)NC(=O)[C@H](CC(C)C)NC(=O)[C@H](Cc1ccccc1)NC(=O)[C@H](CCC(=O)O)NC(=O)[C@H](CCCNC(=N)N)NC(=O)[C@H](CO)NC(=O)[C@H](Cc1ccc(O)cc1)NC(=O)[C@H](CCCNC(=N)N)NC(=O)[C@H](CCCCN)NC(=O)[C@@H](N)CCCCN)[C@@H](C)O)C(C)C)C(=O)N[C@@H](CCCCN)C(=O)N[C@@H](CO)C(=O)N[C@@H](Cc1c[nH]c2ccccc12)C(=O)N[C@@H](CC(=O)O)C(=O)N[C@@H](CCC(N)=O)C(=O)N[C@@H](CCCNC(=N)N)C(N)=O [eIFTerminator3] (H-KKRYSREFLLGFGGSGGSGGSGMTVEEMDSWIKSWDQR-NH2) |
| 60.6 ± 8.5 | CC[C@H](C)[C@H](NC(=O)[C@H](Cc1c[nH]c2ccccc12)NC(=O)[C@H](CO)NC(=O)[C@H](CC(=O)O)NC(=O)[C@H](CCSC)NC(=O)[C@H](CCC(=O)O)NC(=O)[C@H](CCC(=O)O)NC(=O)[C@@H](NC(=O)[C@@H](NC(=O)[C@@H](N)CCSC)[C@@H](C)O)C(C)C)C(=O)N[C@@H](CCCCN)C(=O)N[C@@H](CO)C(=O)N[C@@H](Cc1c[nH]c2ccccc12)C(=O)N[C@@H](CC(=O)O)C(=O)N[C@@H](CCC(N)=O)C(=O)N[C@@H](CCCNC(=N)N)C(=O)NCC(=O)NCC(=O)N[C@@H](CO)C(=O)NCC(=O)NCC(=O)N[C@@H](CO)C(=O)NCC(=O)NCC(=O)N[C@@H](CO)C(=O)NCC(=O)N[C@@H](CCCCN)C(=O)N[C@@H](CCCCN)C(=O)N[C@@H](CCCNC(=N)N)C(=O)N[C@@H](Cc1ccc(O)cc1)C(=O)N[C@@H](CO)C(=O)N[C@@H](CCCNC(=N)N)C(=O)N[C@@H](CCC(=O)O)C(=O)N[C@@H](Cc1ccccc1)C(=O)N[C@@H](CC(C)C)C(=O)N[C@@H](CC(C)C)C(=O)NCC(=O)N[C@@H](Cc1ccccc1)C(N)=O [eIFTerminator4] (H-MTVEEMDSWIKSWDQRGGSGGSGGSGKKRYSREFLLGF-NH2) |

target: T2, His-eIF4E (UniProt P06730 1-217); experiment: SPR; His-eIF4E immobilised; dilution series of eIFTerminator with a fixed, saturating concentration of CBL (1 µM) as analyte; steady-state affinities, ternary complex; conditions: both partners purified
T2 construct: eukaryotic translation initiation factor 4E (eIF4E); Immobilised on the SPR chip; also called eukaryotic translation initiation factor 4E; source: recombinant
T2 sequence (P06730 whole entry): as the sequence (P06730 whole entry) above

| Kd [nM] | Molecule |
| --- | --- |
| 77.8 | eIFTerminator1-CBL binary complex (complex) chain 1: KKRYSREFLLGFGGSGMTVEEMDSWIKSWDQM chain 2: PPGTVDKKMVEKCWKLMDKVVRLCQNPKLALKNSPPYILDLLPDTYQHLRTILSRYEGKMETLGENEYFRVFMENLMKKTKQTISLFKEGKERMYEENSQPRRNLTKLSLIFSHMLAELKGIFPSGLFQGDTFRITKADAAEFWRKAFGEKTIVPWKSFRQALHEVHPISSGLEAMALKSTIDLTCNDYISVFEFDIFTRLFQPWSSLLRNWNSLAVTHPGYMAFLTYDEVKARLQKFIHKPGSYIFRLSCTRLGQWAIGYVTADGNILQTIPHNKPLFQALIDGFREGFYLFPDGRNQNPDLTGLCEPTPQDHIKVTQEQYELYCEMGSTFQLCKICAENDKDVKIEPCGHLMCTSCLTSWQESEGQGCPFCRCEIKGTEPIVVDPFD |
| 43.8 | eIFTerminator4-CBL binary complex (complex) chain 1: MTVEEMDSWIKSWDQMGGSGGSGGSGKKRYSREFLLGF chain 2: PPGTVDKKMVEKCWKLMDKVVRLCQNPKLALKNSPPYILDLLPDTYQHLRTILSRYEGKMETLGENEYFRVFMENLMKKTKQTISLFKEGKERMYEENSQPRRNLTKLSLIFSHMLAELKGIFPSGLFQGDTFRITKADAAEFWRKAFGEKTIVPWKSFRQALHEVHPISSGLEAMALKSTIDLTCNDYISVFEFDIFTRLFQPWSSLLRNWNSLAVTHPGYMAFLTYDEVKARLQKFIHKPGSYIFRLSCTRLGQWAIGYVTADGNILQTIPHNKPLFQALIDGFREGFYLFPDGRNQNPDLTGLCEPTPQDHIKVTQEQYELYCEMGSTFQLCKICAENDKDVKIEPCGHLMCTSCLTSWQESEGQGCPFCRCEIKGTEPIVVDPFD |
| 60.7 | eIFTerminator2-CBL binary complex (complex) chain 1: KKRYSREFLLGFGGSGGSGGSGMTVEEMDSWIKSWDQM chain 2: PPGTVDKKMVEKCWKLMDKVVRLCQNPKLALKNSPPYILDLLPDTYQHLRTILSRYEGKMETLGENEYFRVFMENLMKKTKQTISLFKEGKERMYEENSQPRRNLTKLSLIFSHMLAELKGIFPSGLFQGDTFRITKADAAEFWRKAFGEKTIVPWKSFRQALHEVHPISSGLEAMALKSTIDLTCNDYISVFEFDIFTRLFQPWSSLLRNWNSLAVTHPGYMAFLTYDEVKARLQKFIHKPGSYIFRLSCTRLGQWAIGYVTADGNILQTIPHNKPLFQALIDGFREGFYLFPDGRNQNPDLTGLCEPTPQDHIKVTQEQYELYCEMGSTFQLCKICAENDKDVKIEPCGHLMCTSCLTSWQESEGQGCPFCRCEIKGTEPIVVDPFD |
| 81.8 | eIFTerminator3-CBL binary complex (complex) chain 1: MTVEEMDSWIKSWDQMGGSGKKRYSREFLLGF chain 2: PPGTVDKKMVEKCWKLMDKVVRLCQNPKLALKNSPPYILDLLPDTYQHLRTILSRYEGKMETLGENEYFRVFMENLMKKTKQTISLFKEGKERMYEENSQPRRNLTKLSLIFSHMLAELKGIFPSGLFQGDTFRITKADAAEFWRKAFGEKTIVPWKSFRQALHEVHPISSGLEAMALKSTIDLTCNDYISVFEFDIFTRLFQPWSSLLRNWNSLAVTHPGYMAFLTYDEVKARLQKFIHKPGSYIFRLSCTRLGQWAIGYVTADGNILQTIPHNKPLFQALIDGFREGFYLFPDGRNQNPDLTGLCEPTPQDHIKVTQEQYELYCEMGSTFQLCKICAENDKDVKIEPCGHLMCTSCLTSWQESEGQGCPFCRCEIKGTEPIVVDPFD |
